# Literature values, collected in patent publication US8481060B2, “Melt-coated pharmaceutical composition with fast release” (Losan Pharma GmbH, priority 2008, dated 2013).
# Settings: taste-masking compound (excipient)
row,SMILES,HLB
1,CCCCCCCCCCCCCCCCCCCC(=O)O [arachinic acid],−7
2,CCCCCCCCCCCCCCCCCCCCCC(=O)O [behenic acid],−8
3,CCCCCCCCCCCCCCCCC(=O)O [margaric acid],−6
4,CCCCCCCCCCCCCCCCCC(=O)O [stearic acid],−6

# The remaining lines, values ahead:
row,HLB,SMILES
1,−6,CCCCCCCCCCCCCCCCCCC(=O)O [nonadecane acid]
2,−5,CCCCCCCCCCCCCCCC(=O)O [palmitinic acid]
